The structures appear in SMILES notation.

For orientation: melting point means the temperature, or range, at which the solid turns liquid.

Compound `COc1cc2c(cc1OC)C(CO)Cc1c-2cnc2cc3c(cc12)OCO3` (centres unmarked) [Compound 208] displayed a melting point of 231 to 233 °C. The value for `COc1cc2c(cc1OC)C(CC#N)Cc1c-2cnc2cc3c(cc12)OCO3` (centres unmarked) [Compound 209] was 212 to 214 °C.

For the origin of these results see patent publication US7517867B2, “Topoisomerase-targeting agents” (Rutgers, The State University of New Jersey, priority 2002, dated 2009).
